Measurements: patent US9670480B2, “Genome-wide construction of Schizosaccharomyces pombe heterozygous deletion mutants containing gene-specific barcodes by the methods of 4-round serial or block PCR, or total gene synthesis thereof” (Korea Research Institute of Bioscience and Biotechnology, priority 2008, dated 2017)

Columns and labels:
Wild-type SP286 strain = assay: IC50 measurement of growth inhibition in YES broth (final O.D600, Prism); assay type: cell-based; conditions: Schizosaccharomyces pombe, 30° C., 24 hours, read-out: IC50 (drug-induced inhibition against cell growth)
Protocol: In order to determine the concentration of the chemical for the treatment, 50% inhibitory concentration (IC50) was first measured. Wild-type SP286 strain was grown to O.D600=2.0 in YES broth and inoculated with from 5- to 10-fold serial dilutions of the chemical to O.D600=0.1, followed by incubation at 30° C. for 24 hours. At each concentration of the chemical, the cultures were measured for final O.D600 values which were then plotted against Log [Chemical Concentration]. On the basis of these plots, IC50 values were automatically calculated using Prism Software (version 3.0, GraphPad Software Inc., San Diego, Calif.). Scientific experience made it possible to determine the concentrations of the chemical at around the appropriate IC50 values.
In order to screen terbinafine's modes of action with the GeneChip, first, the treatment concentrations of drug were determined by the measurements of IC50 obtained in the above-mentioned method. In this regard, relative rates of drug-induced inhibition against cell growth were obtained by treating the cells with terbinafine at doses of 0.1 nM, 1 nM, 5 nM, 10 nM, 50 nM, 100 nM, 500 nM and […]. Analysis with Prism software determined IC50=40 nM (FIG. 11).

[1] = test system: erg1 heterozygous deletion mutant; assay: Reconfirmation of GeneChip result on YES agar plates containing terbinafine; assay type: cell-based, Schizosaccharomyces pombe
Protocol: (§1) Since the drug's modes of action detected with the GeneChip might include the false positive signals resulting experiment errors and false chip analysis, all the top 10 drug's modes of action, except non-specific ribosome-related genes, were cultured again on YES agar plates containing terbinafine. […] Therefore, the genes erg1 and pmm1 within the red boxes were verified as being targets of terbinafine.

[2] = test system: pmm1 heterozygous deletion mutant; assay: as above; assay type: cell-based, Schizosaccharomyces pombe
Protocol: as §1

[3] = test system: smb1 heterozygous deletion mutant; assay: as above; assay type: cell-based, Schizosaccharomyces pombe
Protocol: as §1

CN(C/C=C/C#CC(C)(C)C)Cc1cccc2ccccc12 [terbinafine]
IC50 (Wild-type SP286 strain): 40 nM | plate reconfirmation of GeneChip-based mode of action, erg1 [1]: same results as in the chip | plate reconfirmation of GeneChip-based mode of action, pmm1 [2]: same results as in the chip | plate reconfirmation of GeneChip-based mode of action, smb1 [3]: difference from the chip result
